Values joined by “and” are separate entries in the source; they are usually repeats but may differ in a detail not shown here. Equal entries are not always repeated. “Also recorded” adds a separate entry of the source.
Key:
[1] = tested on: Human epithelial adult keratinocytes (HEKa); test: scratch assay of HEKa, automated microscope analyzer; format: cell-based; conditions: HEKa with vs without vemurafenib; evident at 6, 8 and 12 hours
Description: (§1) FIG. 2 illustrates that BRAF inhibition induces paradoxical MAPK activation in human keratinocytes leading to increased proliferation. FIG. 2A is a quantitative analysis of proliferation and scratch healing as the percentage relative wound density of cells at different time points in replicate cultures of HEKa in the presence or absence of vemurafenib by automated microscope analyzer. P value <0.0044 by t-test. […] FIG. 2C illustrates fold-change representation of colony quantification of HEKa and M249 cells grown in soft-agar with or without exposure to vemurafenib. […] The co-expression levels of pERK and Ki67 are shown in the middle of the panel, and quantified and represented a fold change on the left.
(§2) Quantitative analysis of proliferation is represented in FIG. 2A.
(§3) Human epithelial adult keratinocytes (HEKa) cultured in 96-well plates were subject to a scratch assay, where proliferating keratinocytes should regrow and cover the scratch. Replicate cultures with or without the BRAF inhibitor vemurafenib were placed in an incubator with an automated microscope analyzer and the number of nucleated cells in the original scratch was recorded over time. […] Using these cultures, paradoxical MAPK activation and cell proliferation were analyzed by western blot (FIGS. 2F-2G) and quantitative phosphoflow cytometry (FIG. 2H and FIGS. 4A-4B).

[2] = tested on: Human epithelial adult keratinocytes (HEKa); test: cell proliferation wound-healing assay, 96 well plates with seeder stoppers; format: cell-based; conditions: 24 hours, vs control treated wells
Description: as §1, §3

[3] = tested on: HEKa; test: three-dimensional soft agar colony assay, HEKa; format: cell-based, human
Description: as §1, §2, §3

[4] = tested on: BRAF^V600E mutant melanoma line M249; test: three-dimensional soft agar colony assay, M249; format: cell-based, human; conditions: M249, with vs without exposure
Description: as §1, §2, §3

[5] = tested on: pERK and Ki67 in HEKa cells; test: paradoxical MAPK activation and cell proliferation by western blot and phosphoflow cytometry, HEKa; format: cell-based, human; conditions: western blot and phosphoflow (VEM 2 μM)
Description: as §1, §3

[6] = tested on: pERK and Ki67 in BRAF^V600E mutant human melanoma cell line M249; test: MAPK signaling and cell proliferation by western blot and phosphoflow cytometry, M249; format: cell-based; conditions: western blot and phosphoflow (VEM 2 μM)
Description: as §1, §3

[7] = tested on: 2.5 cm dorsal skin wound; test: wound-healing assay in C3H mice, wound tensile strength by tensiometer; format: in vivo
Experimental: FIG. 5A is a schematic representation of the wound-healing assay performed in […] mice according to some embodiments.
In a controlled wound-healing assay in C3H mice, a 2.5 cm dorsal skin wound was induced and was filled with either vehicle control (DMSO/saline) or a suspension of 2 mM of vemurafenib (obtained by crushing clinical grade pills of this agent) in vehicle. The skin wounds were surgically clipped on day 0 and mice were followed until day 14 (FIGS. 5A-5B). Over this time, the vemurafenib suspension or vehicle control was applied topically every other day to 24 mice in the test group or to 24 mice in the control group, respectively, for a total of seven doses per mouse. On day 14, the mice were euthanized and the skin containing the wound was removed and mounted in 20 mm strips with a horizontal wound sample in each strip. The wound tensile strength (WTS) was analyzed using a tensiometer that stretched the strips and recorded the WTS in gram force (gf).

[8] = tested on: skin wounds and their surroundings; test: histological analysis (H&E) of healing wounds in mice; format: in vivo
Description: FIG. 6 is a schematic representation of the pathological analysis of wound healing on days 1 (D1), 2 (D2) and 6 (D6) post-treatment. […] Wound-adjacent epidermis undergoes hyperplasia and proliferation and epidermal cells from this process migrate centrally to seal the incised epidermal deficiency. The space of the incision fills initially with fibrin, which is then colonized by fibroblasts, macrophages, polymorphonuclear cells and new capillaries. […] Each bar includes data from 4 samples.
The area of the wounds and their surroundings were analyzed histologically by H&E staining by two pathologists and the extent of epidermal hyperplasia on both sides of the healing wounds was measured on days 1, 2 and 6 post-treatment (FIGS. 6A and 6B).

[9] = tested on: MAPK and wound healing pathway output; test: RNASeq gene expression profiling of healing cutaneous wounds; format: in vivo, mice
Experimental: The skin samples obtained from mice treated either with vemurafenib or vehicle were analyzed for changes in MAPK and wound healing pathway output by RNASeq. The gene output of MAPK was compared to published data on the transcripts that were differentially modulated by blocking oncogenic MAPK signaling downstream of mutated BRAF^V600E using BRAF inhibitors, or to a published cutaneous wound healing gene signature.

## CCCS(=O)(=O)Nc1ccc(F)c(C(=O)c2c[nH]c3ncc(-c4ccc(Cl)cc4)cc23)c1F [vemurafenib]
[1]
  covering of the original scratch (proliferation and scratch healing, relative wound density): accelerated the proliferation and migration of human keratinocytes; also recorded: statistically significant improvement in the covering of the original scratch
[2]
  covering of the center of the wells by proliferating/migrating keratinocytes: covered the center of the wells after 24 hours
[3]; soft agar
  mean spot size of HEKa colonies: increased significantly
[3]; with vs without exposure
  number of HEKa colonies in soft agar: increased in number
[4]
  number of M249 colonies in soft agar: decrease in colonies
[5]
  cell cycle (Ki67): cell cycle progression
  pERK: paradoxical increase in pERK
[6]
  cell cycle (Ki67): cell cycle arrest
  pERK: decreased pERK
[7]; C3H mice, 2 mM suspension topically every other day, day 14, three independent replicate experiments (#1-3)
  improvement in wound tensile strength (WTS) compared to saline control: 52.6% and 32.9% and 42.8%
[7]; separate cutaneous wound-healing assay (Experiment #4), trametinib 1 mg/kg where added
  improvement in WTS vs. vehicle control: 37%
[7]; wound-healing mouse model, topically applied
  tensile strength of healing wounds (in words): improved the tensile strength of healing wounds
[8]; by day 6
  wounds re-epithelialized: 100%
[8]; day 1 and 2
  extent (length) of epidermal hyperplasia vs other treated groups: epidermal hyperplasia over a greater distance than the other treated groups
[8]; day 1 post-incision
  wound-adjacent epidermal inflammation: more extensive
[8]; day 2 post-incision
  wound-adjacent (peri-lesional) epidermal hyperplasia, photomicrographs: more extensive
[8]; day 6
  dermal reparative / sub-epidermal fibrosis: beginning of sub-epidermal fibrosis
  extent (length) of epidermal hyperplasia vs other treated groups: less epidermal hyperplasia
  skin surface integrity: surface integrity was re-established; also recorded: Skin surface integrity re-established in 6 days
[8]; days 1 to 6
  healing process / signs of healing or repair (pathologists' assessment): the healing process is accelerated
[8]; from day 2
  onset of re-epithelialization: strong and rapid re-epithelialization starting at day 2
[9]; after day 6, time point not given
  BRAF and wound-healing signatures, later course: more pronounced decrease
[9]; day 2, vs control
  BRAF signature genes: slight increase
  wound-healing signature genes: almost no change
[9]; day 6, vs control
  BRAF signature genes: enriched significantly
  wound-healing signature genes: enriched significantly
